Experimental data taken from US9527851B2, “Pyrrole six-membered heteroaryl ring derivative, preparation method thereof, and medicinal uses thereof” (Jiangsu Hengrui Medicine Co., Ltd., priority 2011, dated 2016).

Key:
[1] = Pharmacokinetics assay in rats, intragastric administration, plasma by LC/MS/MS; type: in vivo, Sprague-Dawley (SD) rats; conditions: both sexes, Sprague-Dawley, rat, plasma, po, SD rats, 10 mg/kg; for Vd/F: read-out: Apparent Distribution Volume Vz/F; for AUC: read-out: Area Under Curve AUC; for CL/F: read-out: Clearance CL/F; for half-life: read-out: Half-Life t½ (converted); for MRT: read-out: Mean Residence Time MRT; for Cmax: read-out: Plasma Conc. Cmax
Procedure: Rats were used as test animals. […] The pharmacokinetic behavior of the compounds of the present invention was studied and evaluated in rats.
56 Healthy adult Sprague-Dawley (SD) rats, half male and half female, purchased from SINO-BRITSH SIPPR/BK LAB.
The appropriate amount of test compounds were weighed and mixed with 1.0 mL of dimethyl sulfoxide to prepare a 1.0 mg/mL suspension.
After an overnight fast, SD rats were administered intragastrically at a dose of 10.0 mg/kg and an administration volume of 10 mL/kg.
The plasma samples were stored at −20° C. The rats were fed 2 hours after administration.
Content determination of the test compounds in rat plasma after intragastrically administering at different concentrations: 50 μL of rat plasmas taken at various time points after administration were mixed with 50 μL of internal standard solution and 100 μL of methanol and mixed for 3 minutes by a vortexer. The mixture was centrifuged for 10 minutes at 13,500 rpm. 10 μL of the supernatant was taken from the plasma sample and analyzed by LC-MS/MS.
Pharmacokinetic Parameters of the compounds of the present invention were shown as follows: […]

[2] = biological target: JAK2 kinase (Homo sapiens (Human), UniProt O60674); assay: Assay for inhibiting JAK2 kinase (in vitro kinase assay, HRP anti-phosphotyrosine antibody/TMB absorbance); type: biochemical; conditions: 20 μM ATP, 50 minutes at room temperature; read-out: IC50 (JAK2/Bio)
Sequence of JAK2 kinase (O60674 whole entry): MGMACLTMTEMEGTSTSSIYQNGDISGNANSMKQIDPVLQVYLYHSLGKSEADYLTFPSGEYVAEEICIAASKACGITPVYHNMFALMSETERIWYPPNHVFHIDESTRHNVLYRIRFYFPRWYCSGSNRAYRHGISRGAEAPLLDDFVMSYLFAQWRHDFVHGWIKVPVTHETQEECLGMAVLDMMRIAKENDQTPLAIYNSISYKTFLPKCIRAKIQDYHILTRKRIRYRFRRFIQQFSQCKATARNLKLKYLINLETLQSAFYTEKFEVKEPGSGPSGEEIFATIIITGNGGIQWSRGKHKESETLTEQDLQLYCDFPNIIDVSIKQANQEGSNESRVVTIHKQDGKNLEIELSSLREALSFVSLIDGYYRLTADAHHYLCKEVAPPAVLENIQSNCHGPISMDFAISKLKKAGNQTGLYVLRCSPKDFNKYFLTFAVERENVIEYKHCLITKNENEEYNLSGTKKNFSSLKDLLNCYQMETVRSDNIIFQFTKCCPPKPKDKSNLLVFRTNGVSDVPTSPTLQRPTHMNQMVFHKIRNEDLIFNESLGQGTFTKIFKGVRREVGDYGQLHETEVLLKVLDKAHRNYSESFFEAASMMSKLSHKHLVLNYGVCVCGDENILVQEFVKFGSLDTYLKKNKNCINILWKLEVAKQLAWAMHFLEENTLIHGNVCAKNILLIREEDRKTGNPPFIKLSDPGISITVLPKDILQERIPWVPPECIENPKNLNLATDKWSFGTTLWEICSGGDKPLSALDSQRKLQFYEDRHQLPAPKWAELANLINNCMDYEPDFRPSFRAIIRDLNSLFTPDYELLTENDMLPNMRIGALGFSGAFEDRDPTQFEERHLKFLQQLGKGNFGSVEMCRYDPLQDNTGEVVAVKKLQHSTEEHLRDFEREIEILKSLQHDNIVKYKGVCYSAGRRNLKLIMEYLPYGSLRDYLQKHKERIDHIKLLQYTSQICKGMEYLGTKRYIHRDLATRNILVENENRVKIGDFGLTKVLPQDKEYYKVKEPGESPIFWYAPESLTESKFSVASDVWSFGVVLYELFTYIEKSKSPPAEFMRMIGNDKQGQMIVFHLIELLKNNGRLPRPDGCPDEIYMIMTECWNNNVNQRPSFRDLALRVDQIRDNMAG
Procedure: In vitro activity of compounds of the present invention for inhibiting JAK2 kinase was determined by the following method.

[3] = biological target: JAK1 kinase (Homo sapiens (Human), UniProt P23458); assay: Assay for inhibiting JAK1 kinase (in vitro kinase assay, HRP anti-phosphotyrosine antibody/TMB absorbance); type: biochemical; conditions: 20 μM ATP, 50 minutes at room temperature; read-out: IC50 (JAK1/Bio)
Sequence of JAK1 kinase (P23458 whole entry): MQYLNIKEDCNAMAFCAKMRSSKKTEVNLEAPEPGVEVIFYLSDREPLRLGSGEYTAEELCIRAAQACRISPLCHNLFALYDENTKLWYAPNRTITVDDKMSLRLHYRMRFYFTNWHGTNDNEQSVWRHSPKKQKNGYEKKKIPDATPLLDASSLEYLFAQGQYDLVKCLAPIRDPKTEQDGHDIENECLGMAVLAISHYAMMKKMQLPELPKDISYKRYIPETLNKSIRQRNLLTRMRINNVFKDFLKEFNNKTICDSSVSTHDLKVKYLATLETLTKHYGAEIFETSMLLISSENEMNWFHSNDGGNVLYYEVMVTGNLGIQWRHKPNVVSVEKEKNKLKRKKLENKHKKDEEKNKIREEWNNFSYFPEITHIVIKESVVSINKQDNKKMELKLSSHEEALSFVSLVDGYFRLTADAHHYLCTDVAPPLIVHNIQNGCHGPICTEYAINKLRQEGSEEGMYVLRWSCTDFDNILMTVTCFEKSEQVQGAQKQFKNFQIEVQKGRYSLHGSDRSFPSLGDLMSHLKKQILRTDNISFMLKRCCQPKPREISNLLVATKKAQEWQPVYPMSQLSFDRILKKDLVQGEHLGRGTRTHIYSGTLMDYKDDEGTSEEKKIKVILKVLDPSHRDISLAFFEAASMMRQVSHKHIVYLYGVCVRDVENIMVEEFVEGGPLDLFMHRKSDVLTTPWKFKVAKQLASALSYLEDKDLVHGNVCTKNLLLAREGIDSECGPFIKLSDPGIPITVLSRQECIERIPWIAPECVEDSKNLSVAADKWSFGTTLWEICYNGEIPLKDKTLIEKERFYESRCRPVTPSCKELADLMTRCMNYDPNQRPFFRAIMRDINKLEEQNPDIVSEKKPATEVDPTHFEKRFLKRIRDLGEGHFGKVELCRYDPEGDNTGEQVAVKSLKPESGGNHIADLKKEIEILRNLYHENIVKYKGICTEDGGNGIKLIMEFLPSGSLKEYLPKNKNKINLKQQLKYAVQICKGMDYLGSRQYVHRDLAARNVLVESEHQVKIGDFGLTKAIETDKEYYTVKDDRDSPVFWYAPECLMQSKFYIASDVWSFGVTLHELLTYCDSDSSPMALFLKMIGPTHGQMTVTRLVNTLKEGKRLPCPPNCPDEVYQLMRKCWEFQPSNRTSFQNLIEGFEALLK
Procedure: In vitro activity of compounds of the present invention for inhibiting JAK1 kinase was determined by the following method.
IC50 values of test compounds was calculated from the data of the test compounds in inhibiting the activity of JAK1 kinase at different concentrations.

[4] = biological target: JAK3 kinase (Homo sapiens (Human), UniProt P52333); assay: Assay for inhibiting JAK3 kinase (in vitro kinase assay, HRP anti-phosphotyrosine antibody/TMB absorbance); type: biochemical; conditions: 50 minutes at room temperature; read-out: IC50 (JAK3/Bio)
Sequence of JAK3 kinase (P52333 whole entry): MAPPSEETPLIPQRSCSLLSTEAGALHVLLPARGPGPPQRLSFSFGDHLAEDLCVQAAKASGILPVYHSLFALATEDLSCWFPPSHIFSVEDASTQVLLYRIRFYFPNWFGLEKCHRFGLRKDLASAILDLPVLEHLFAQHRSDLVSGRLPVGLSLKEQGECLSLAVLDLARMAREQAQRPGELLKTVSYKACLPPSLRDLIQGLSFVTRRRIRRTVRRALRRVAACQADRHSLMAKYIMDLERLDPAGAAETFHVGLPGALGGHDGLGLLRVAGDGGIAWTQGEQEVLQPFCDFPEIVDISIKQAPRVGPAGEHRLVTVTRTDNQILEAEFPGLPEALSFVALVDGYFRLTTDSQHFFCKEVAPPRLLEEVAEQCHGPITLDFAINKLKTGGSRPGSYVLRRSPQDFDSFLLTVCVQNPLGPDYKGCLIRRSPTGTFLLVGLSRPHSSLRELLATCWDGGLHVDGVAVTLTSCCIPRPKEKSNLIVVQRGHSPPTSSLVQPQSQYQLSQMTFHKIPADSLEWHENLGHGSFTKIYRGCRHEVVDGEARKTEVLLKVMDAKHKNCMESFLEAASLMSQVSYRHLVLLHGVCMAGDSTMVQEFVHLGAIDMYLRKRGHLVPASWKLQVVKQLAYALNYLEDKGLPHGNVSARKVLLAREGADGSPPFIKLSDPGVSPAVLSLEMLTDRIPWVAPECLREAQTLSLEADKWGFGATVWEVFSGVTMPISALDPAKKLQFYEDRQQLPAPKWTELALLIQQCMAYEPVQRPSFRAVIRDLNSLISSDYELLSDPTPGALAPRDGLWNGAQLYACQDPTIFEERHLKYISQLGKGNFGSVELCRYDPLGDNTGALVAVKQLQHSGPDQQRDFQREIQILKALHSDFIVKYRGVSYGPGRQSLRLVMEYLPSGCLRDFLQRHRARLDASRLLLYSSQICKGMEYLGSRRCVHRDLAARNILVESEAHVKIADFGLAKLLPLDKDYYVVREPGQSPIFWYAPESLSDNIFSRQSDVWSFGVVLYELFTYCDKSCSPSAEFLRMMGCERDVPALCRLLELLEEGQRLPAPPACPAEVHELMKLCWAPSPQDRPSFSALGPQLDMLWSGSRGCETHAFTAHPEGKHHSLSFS
Procedure: In vitro activity of compounds of the present invention for inhibiting JAK3 kinase was determined by the following method.

Row | SMILES | Vd/F [1] | AUC [1] | CL/F [1] | half-life [1] | MRT [1] | Cmax [1] | IC50 [2] | IC50 [3] | IC50 [4]
1 | CN(c1ncnc2[nH]ccc12)[C@H]1C[C@@H]2CN(C(=O)CCC#N)C[C@@H]2C1 [Example 22, 4-((3aR,5S,6aS)-5-(Methyl(7H-pyrrolo[2,3-d]pyrimidin-4-yl)amino)hexahydrocyclopenta[c]pyrrol-2(1H)-yl)-4-oxobutanenitrile] | 9.39 ± 8.06 L/kg | 6990 ± 4560 ng·h/mL | 34.6 ± 22.7 mL/min/kg | 2.87 ± 0.7 h | 2.6 ± 0.1 h | 2960 ± 2110 ng/mL | 54 nM | 16 nM | –
2 | COc1nsc(NC(=O)N2C[C@H]3C[C@H](N(C)c4ncnc5[nH]ccc45)C[C@H]3C2)n1 [Example 34, (3aR,5S,6aS)—N-(3-Methoxy-1,2,4-thiadiazol-5-yl)-5-(methyl(7H-pyrrolo[2,3-d]pyrimidin-4-yl)amino)hexahydrocyclopenta[c]pyrrole-2(1H)-carboxamide] | 2.76 ± 1.53 L/kg | 14900 ± 10400 ng·h/mL | 18.3 ± 14.2 mL/min/kg | 2.1 ± 0.73 h | 3.81 ± 0.82 h | 2670 ± 1450 ng/mL | 5 nM | 2 nM | –
3 | CC(=O)N1CC[C@H]2CC(N(C)c3ncnc4[nH]ccc34)C[C@H]2C1 (stereo partly drawn) [Example 35, 1-((4aS,7aR)-6-(Methyl(7H-pyrrolo[2,3-d]pyrimidin-4-yl)amino)hexahydro-1H-cyclopenta[c]pyridin-2(3H,4H,4aH,5H,6H,7H,7aH)-yl)ethanone] | 10.4 ± 2.04 L/kg | 3080 ± 1340 ng·h/mL | 63.3 ± 28 mL/min/kg | 2.11 ± 0.67 h | 3.02 ± 1.33 h | 1220 ± 244 ng/mL | 16 nM | 3 nM | –
4 | COC(=O)N1CC[C@H]2CC(N(C)c3ncnc4[nH]ccc34)C[C@H]2C1 (stereo partly drawn) [Example 36, (4aS,7aR)-Methyl 6-(methyl(7H-pyrrolo[2,3-d]pyrimidin-4-yl)amino) hexahydro-1H-cyclopenta[c]pyridine-2(3H)-carboxylate] | – | – | – | – | – | – | 75 nM | 25 nM | –
5 | CN(c1ncnc2[nH]ccc12)C1C[C@@H]2CCN(C(=O)CO)C[C@@H]2C1 (stereo partly drawn) [Example 37, 2-Hydroxy-1-((4aS,7aR)-6-(methyl(7H-pyrrolo[2,3-d]pyrimidin-4-yl)amino)hexahydro-1H-cyclopenta[c]pyridin-2(3H,4H,4aH,5H,6H,7H,7aH)-yl)ethanone] | – | – | – | – | – | – | 72 nM | 50 nM | –
6 | CN(c1ncnc2[nH]ccc12)C1C[C@@H]2CCN(C(=O)CC#N)C[C@@H]2C1 (stereo partly drawn) [Example 39, 3-((4aS,7aR)-6-(Methyl(7H-pyrrolo[2,3-d]pyrimidin-4-yl)amino)hexahydro-1H-cyclopenta[c]pyridin-2(3H,4H,4aH,5H,6H,7H,7aH)-yl)-3-oxopropanenitrile] | – | – | – | – | – | – | 113 nM | 34 nM | –
7 | CCc1nsc(NC(=O)N2C[C@H]3C[C@H](N(C)c4ncnc5[nH]ccc45)C[C@H]3C2)n1 [Example 48, (3aR,5S,6aS)—N-(3-Ethyl-1,2,4-thiadiazol-5-yl)-5-(methyl(7H-pyrrolo[2,3-d]pyrimidin-4-yl)amino)hexahydrocyclopenta[c]pyrrole-2(1H)-carboxamide] | 7.2 ± 8.11 L/kg | 9620 ± 7910 ng·h/mL | 31.9 ± 26.9 mL/min/kg | 2.43 ± 0.75 h | 3.4 ± 0.91 h | 2070 ± 1470 ng/mL | 31 nM | 1 nM | –
8 | CN(c1ncnc2[nH]ccc12)[C@H]1C[C@@H]2CN(C(=O)Nc3nc(C4CC4)ns3)C[C@@H]2C1 [Example 49, (3aR,5S,6aS)—N-(3-Cyclopropyl-1,2,4-thiadiazol-5-yl)-5-(methyl(7H-pyrrolo[2,3-d]pyrimidin-4-yl)amino)hexahydrocyclopenta[c]pyrrole-2(1H)-carboxamide] | 18.1 ± 20.7 L/kg | 6000 ± 4740 ng·h/mL | 46.1 ± 35.6 mL/min/kg | – | – | 1060 ± 677 ng/mL | 14 nM | 0.2 nM | –
9 | Cc1noc(N2C[C@H]3C[C@H](N(C)c4ncnc5[nH]ccc45)C[C@H]3C2)n1 [Example 61, N-methyl-N-((3aR,5S,6aS)-2-(3-methyl-1,2,4-oxadiazol-5-yl)octahydrocyclopenta[c]pyrrol-5-yl)-7H-pyrrolo[2,3-d]pyrimidin-4-amine] | – | – | – | – | – | – | 25 nM | 128 nM | –
10 | CN(c1ncnc2[nH]ccc12)[C@@H]1C[C@@H]2CN(CCC#N)C[C@@H]2C1 [Example 68, 3-((3aR,5R,6aS)-5-(methyl(7H-pyrrolo[2,3-d]pyrimidin-4-yl)amino)hexahydrocyclopenta[c]pyrrol-2(1H)-yl)propanenitrile] | – | – | – | – | – | – | 18 nM | 17 nM | –
11 | CN(c1ncnc2[nH]ccc12)[C@@H]1C[C@@H]2CN(C(=O)Nc3nncs3)C[C@@H]2C1 [Example 73, (3aR,5R,6aS)-5-(methyl(7H-pyrrolo[2,3-d]pyrimidin-4-yl)amino)-N-(1,3,4-thiadiazol-2-yl)hexahydrocyclopenta[c]pyrrole-2(1H)-carboxamide] | – | – | – | – | – | – | 47 nM | 75 nM | –
12 | COc1nsc(NC(=O)N2C[C@H]3C[C@@H](N(C)c4ncnc5[nH]ccc45)C[C@H]3C2)n1 [Example 74, (3aR,5R,6aS)-N-(3-methoxy-1,2,4-thiadiazol-5-yl)-5-(methyl(7H-pyrrolo[2,3-d]pyrimidin-4-yl)amino)hexahydrocyclopenta[c]pyrrole-2(1H)-carboxamide] | – | – | – | – | – | – | 56 nM | 4 nM | –
13 | CN(c1ncnc2[nH]ccc12)[C@@H]1C[C@@H]2CN(C(=O)CCC#N)C[C@@H]2C1 [Example 75, 4-((3aR,5R,6aS)-5-(methyl(7H-pyrrolo[2,3-d]pyrimidin-4-yl)amino)hexahydrocyclopenta[c]pyrrol-2(1H)-yl)-4-oxobutanenitrile] | – | – | – | – | – | – | 156 nM | 46 nM | –
14 | CN(c1ncnc2[nH]ccc12)[C@H]1C[C@@H]2CN(C(=O)Nc3nncs3)C[C@@H]2C1 [Example 86, (3aR,5S,6aS)-5-(methyl(7H-pyrrolo[2,3-d]pyrimidin-4-yl)amino)-N-(1,3,4-thiadiazol-2-yl)hexahydrocyclopenta[c]pyrrole-2(1H)-carboxamide] | – | – | – | – | – | – | 52 nM | 10 nM | –
15 | CN(c1ncnc2[nH]ccc12)[C@H]1C[C@@H]2CN(C(=O)[C@H](O)CO)C[C@@H]2C1 [Example 92, (R)-2,3-dihydroxy-1-((3aR,5S,6aS)-5-(methyl(7H-pyrrolo[2,3-d]pyrimidin-4-yl)amino)hexahydrocyclopenta[c]pyrrol-2(1H)-yl)propan-1-one] | – | – | – | – | – | – | 203 nM | 131 nM | –
16 | CN(c1ncnc2[nH]ccc12)[C@H]1C[C@@H]2CN(C(=O)C(O)C(F)(F)F)C[C@@H]2C1 (stereo partly drawn) [Example 97, 3,3,3-trifluoro-2-hydroxy-1-((3aR,5S,6aS)-5-(methyl(7H-pyrrolo[2,3-d]pyrimidin-4-yl)amino)hexahydrocyclopenta[c]pyrrol-2(1H)-yl)propan-1-one] | – | – | – | – | – | – | – | – | 110 nM
17 | COc1nsc(NC(=O)N2C[C@H]3C[C@H](N(C)c4ccnc5[nH]ccc45)C[C@H]3C2)n1 [Example 113, (3aR,5S,6aS)-N-(3-methoxy-1,2,4-thiadiazol-5-yl)-5-(methyl(1H-pyrrolo[2,3-b]pyridin-4-yl)amino)hexahydrocyclopenta[c]pyrrole-2(1H)-carboxamide] | – | – | – | – | – | – | 178 nM | 23 nM | –
18 | CN(c1ncnc2[nH]c(F)cc12)[C@H]1C[C@@H]2CN(C(=O)CO)C[C@@H]2C1 [Example 129, 1-((3aR,5S,6aS)-5-((6-fluoro-7H-pyrrolo[2,3-d]pyrimidin-4-yl)(methyl)amino)hexahydrocyclopenta[c]pyrrol-2(1H)-yl)-2-hydroxyethanone] | – | – | – | – | – | – | – | 36 nM | 17 nM
19 | CN(C[C@H]1[C@@H]2CN(C(=O)OC(C)(C)C)C[C@@H]21)c1ncnc2[nH]ccc12 [Example 133, (1R,5S,6S)-tert-butyl 6-((methyl(7H-pyrrolo[2,3-d]pyrimidin-4-yl)amino)methyl)-3-azabicyclo[3.1.0]hexane-3-carboxylate] | – | – | – | – | – | – | – | – | 90 nM
20 | COc1nnc(NC(=O)N2C[C@H]3C[C@H](N(C)c4ncnc5[nH]ccc45)C[C@H]3C2)s1 [Example 155, (3aR,5S,6aS)-N-(5-methoxy-1,3,4-thiadiazol-2-yl)-5-(methyl(7H-pyrrolo[2,3-d]pyrimidin-4-yl)amino)hexahydrocyclopenta[c]pyrrole-2(1H)-carboxamide] | – | – | – | – | – | – | 41 nM | 4 nM | –
